Results: article PMC10380083, “Synthesis of Prostate-Specific Membrane Antigen-Targeted Bimodal Conjugates of Cytotoxic Agents and Antiandrogens and Their Comparative Assessment with Monoconjugates” (International Journal of Molecular Sciences, 2023)
Where two headings read alike, the source gives them in different places. *1 amine or outer side, *2 acyl side, *3 side chain or, on linkers, in order; H or OH if unused. Where a SMILES comes first, the peptide text is derived from it. [ ]: non-standard residue; d: D form. The star is where a group is joined. GluureaLys(ε-3-ClBenzyl) = O=C(O)CC[C@H](NC(=O)N[C@@H](CCCCN(Cc1cccc(Cl)c1)*)C(=O)O)C(=O)O; X4 = C[C@]12CC[C@H](OC(=O)CCC(=O)*)CC1=CC[C@@H]1[C@@H]2CC[C@]2(C)C(c3cccnc3)=CC[C@@H]12; Dolaproine = CO[C@@H]([C@@H]1CCCN1)[C@@H](C)C(=O)O; Dil = CC[C@H](C)[C@H](NC)[C@@H](CC(=O)O)OC; X2 = O=C(CCCc1cn(CCCN[*:1])nn1)[*:2]; PABC = O=C(OCc1ccc(N[*:1])cc1)[*:2]; X1 = C[C@@H](N*)[C@@H](O)c1ccccc1; Cit = NC(=O)NCCC[C@H](N)C(=O)O; Suc = O=C(CCC(=O)[*:2])[*:1]; NMeV = CN[C@H](C(=O)O)C(C)C; Ahx = NCCCCCC(=O)O

Assays:
[1] = system: 22Rv1 human prostate carcinoma xenograft; settings: 22Rv1 xenograft; for tumor volume V±m: i.v. triple injection, single dose 132.3 nM/kg; for Tumor growth inhibition: i.v. 132.3 nM/kg three times
Description: (§1) We carried out in vivo studies of the efficacy of the obtained bimodal conjugates. […] Also, conjugate I (Figure 5) was used as a reference compound. An isotonic (0.9%) sodium chloride solution was used as a negative control. Studies were carried out in xenograft models of 22Rv1 human prostate carcinoma and PC-3 prostate adenocarcinoma in immunodeficient Balb/c nude mice (male).
(§2) Two cell lines were used: human prostate carcinoma 22Rv1 and prostate adenocarcinoma PC-3 (ATCC collection). Cells were cultured in 75 cm^2 vials (Costar, Washington, DC, USA) in RPMI-1640 medium (PanEco, Russia) with the addition of 2 mM L-glutamine (PanEco, Russia) and 10% fetal calf serum (HyClone, Logan, UT, USA) under standard conditions of cultivation (in a humidified atmosphere at 37 °C and 5% CO2). Cells of 6–10 passages were used to inoculate the animals. Cell suspension was prepared with a concentration of 5 × 10^6 cells in 0.05 mL of the 22Rv1 medium and in 0.1 mL of the PC-3 medium. 22Rv1 cells were inoculated into animals in Matrigel (BD Matrigel Basement Membrane Matrix, BD Biosciences, San Jose, CA, USA). Manipulations with Matrigel were performed on a refrigerated plate using precooled materials, tubes and instrumentation. For animal administration, 50 μL of the cell suspension (5 × 10^6 cells) was transferred to a chilled tube containing 50 μL of Matrigel; after mixing, the cellular material (final volume of 100 μL) was injected subcutaneously into the groin area of the animal. To obtain subcutaneous xenograft PC-3, a 5 × 10^6 suspension of tumor cells was inoculated subcutaneously into the inguinal cavity of male mice in a volume of 0.1 mL.
(§3) To study the antitumor efficacy, conjugates were administered intravenously at a dose of 132.3 nM/kg to tumor-bearing mice three times at five-day intervals; administration was started 7−8 days after cell inoculation, and the tumor size was 70−90 mm^3. As a control substance, 0.9% sodium chloride solution was used. Experimental groups included five animals each. […] The mixture was dissolved in DMSO (5% of final solution) and diluted with hemodesum (30% low-molecular-weight polyvinylpyrrolidone (Mw = 8000 ± 200) saline infusion solution). The presence of tumors and their sizes, as well as the body weights of the mice, were recorded every five days during the observation of the animals. The antitumor effect was assessed by comparing the tumor volumes in the experimental and control groups as well as the amount of tumor growth inhibition (TGI, %).
(§4) Tumor volume was calculated using Formula (1):V = d1 × d2 × d3 × 0.52(1) where d1, d2 and d3 are the three mutually perpendicular dimensions of the tumor. […]
(§5) 3.2.1. In vivo evaluation of antitumor efficacy […]
(§6) intravenously at a dose of 132.3 nM/kg to tumor-bearing mice three times at 5-day intervals, the administration was started 7-8 days after cell inoculation to animals, tumor size was 70-90 mm3.
(§7) A 0.9% sodium chloride solution was used as a control substance. The experimental groups […]
(§8) The presence of tumor masses and their size, as well as the body weight of the mice, were recorded every 5 days during observation. In accordance with humane principles, animals were euthanized by placing the mice in a CO2 inhalation chamber (ZOONLAB GmbH, Germany).

[2] = system: PC-3 prostate adenocarcinoma xenograft; settings: PC-3 xenograft; for tumor volume V±m: i.v. triple injection, single dose 132.3 nM/kg; for Tumor growth inhibition: i.v. 132.3 nM/kg three times; for TGI, did not exceed: i.v. 132.3 nM/kg three times at five-day intervals, male Balb/c nude mice
Description: as §1, §2, §3, §4, §5, §6, §7, §8

[3] = Body weight, general condition and mortality in the antitumor efficacy study; settings: i.v. 132.3 nM/kg x3
Description: Animal body weight data are presented in Table S2 in the electronic supplementary materials.
as §3, with “%). […]” for “%).”
as §5, §6, §7, §8
Conjugate Method of injection Dose Number of animals 22Rv1 PC-3 […]
3.4. In vivo Efficacy Evaluation
Days after tumor implantation / mass± error, g
Conjugate 7 day 12 day 17 day […]
injection) injection) injection)
Human prostate carcinoma 22Rv1
Human prostate adenocarcinoma PC-3
Table S3. Tumor growth dynamics of 22Rv1 and PC-3 in mice with intravenous triple injection of […]
ate Days after tumor implantation / V±m, mm3

[4] = 7 day after tumor implantation (1st injection)
[5] = 12 day after tumor implantation (2nd injection)
[6] = 17 day after tumor implantation (3rd injection)
[7] = 22 day after tumor implantation
[8] = 33 day after tumor implantation
[9] = 37 day after tumor implantation
[10] = days after the start of treatment: 1
[11] = days after the start of treatment: 5
[12] = days after the start of treatment: 10
[13] = days after the start of treatment: 16
[14] = days after the start of treatment: 20
[15] = 22Rv1 xenograft mice, 7 day after tumor implantation (1st injection)
[16] = 22Rv1 xenograft mice, 12 day after tumor implantation (2nd injection)
[17] = 22Rv1 xenograft mice, 17 day after tumor implantation (3rd injection)
[18] = 22Rv1 xenograft mice, 22 day after tumor implantation
[19] = 22Rv1 xenograft mice, 27 day after tumor implantation
[20] = 22Rv1 xenograft mice, 33 day after tumor implantation
[21] = 22Rv1 xenograft mice, 37 day after tumor implantation
[22] = PC-3 xenograft mice, 7 day after tumor implantation (1st injection)
[23] = PC-3 xenograft mice, 12 day after tumor implantation (2nd injection)
[24] = PC-3 xenograft mice, 17 day after tumor implantation (3rd injection)
[25] = PC-3 xenograft mice, 22 day after tumor implantation
[26] = PC-3 xenograft mice, 27 day after tumor implantation
[27] = PC-3 xenograft mice, 33 day after tumor implantation
[28] = PC-3 xenograft mice, 37 day after tumor implantation

Row | SMILES | tumor volume V±m [1, 4] | tumor volume V±m [1, 5] | tumor volume V±m [1, 6] | tumor volume V±m [1, 7] | tumor volume V±m [1, 8] | tumor volume V±m [1, 9] | Tumor growth inhibition [1, 10] | Tumor growth inhibition [1, 13] | Tumor growth inhibition [1, 14] | tumor volume V±m [2, 4] | tumor volume V±m [2, 5] | tumor volume V±m [2, 8] | tumor volume V±m [2, 9] | Tumor growth inhibition [2, 13] | Tumor growth inhibition [2, 14] | TGI, did not exceed [2] | body weight, mass ± error [3, 15] | body weight, mass ± error [3, 16] | body weight, mass ± error [3, 17] | body weight, mass ± error [3, 18] | further results
1 | CC[C@H](C)[C@@H]([C@@H](CC(=O)N1CCC[C@H]1[C@H](OC)[C@@H](C)C(=O)N[C@H](C)[C@@H](O)c1ccccc1)OC)N(C)C(=O)[C@@H](NC(=O)[C@H](C(C)C)N(C)C(=O)OCc1ccc(NC(=O)[C@H](CCCNC(N)=O)NC(=O)[C@@H](NC(=O)CCCc2cn(CCCNC(=O)[C@H](CCCCNC(=O)CCC(=O)O[C@H]3CC[C@@]4(C)C(=CC[C@@H]5[C@@H]4CC[C@]4(C)C(c6cccnc6)=CC[C@@H]54)C3)NC(=O)[C@H](Cc3ccc(O)cc3)NC(=O)[C@H](Cc3ccccc3)NC(=O)CCC(=O)NCCCCCC(=O)N(CCCC[C@H](NC(=O)N[C@@H](CCC(=O)O)C(=O)O)C(=O)O)Cc3cccc(Cl)c3)nn2)C(C)C)cc1)C(C)C [13a] ({GluureaLys(ε-3-ClBenzyl)-Ahx-Suc}-FYK(X4)[X2]V[Cit][PABC][NMeV]V[Dil][Dolaproine]-X1) | 69.6±17.0 mm3 | 77.2±9.3 mm3 | 81.4±25.8 mm3 | 121.7 mm3 | 391.6 mm3 | 784.0 mm3 | 62.0% | 80.6% | 72.6% | 82.2±5.9 mm3 | 127.5 mm3 | 958.0 mm3 | 1684.0 mm3 | 29.5% | 38.3% | ≤ 44.9% | 22.3 ± 1.3 g | 22.5 ± 1.4 g | 22.2 ± 1.4 g | 22.2 ± 1.4 g | Tumor growth inhibition [1, 11]: 77.1%; Tumor growth inhibition [1, 12]: 80.4%; tumor volume V±m [2, 7]: 292.5 mm3; tumor volume V±m ([2]; 27 day after tumor implantation): 463.1 mm3; Tumor growth inhibition [2, 10]: 36.2%; Tumor growth inhibition [2, 11]: 40.0%; Tumor growth inhibition [2, 12]: 44.9%; body weight, mass ± error [3, 19]: 22.5 ± 1.3 g; body weight, mass ± error [3, 20]: 22.7 ± 1.3 g; body weight, mass ± error [3, 21]: 22.7 ± 1.3 g; body weight, mass ± error [3, 22]: 24.9 ± 1.2 g; body weight, mass ± error [3, 23]: 24.7 ± 1.5 g; body weight, mass ± error [3, 24]: 24.8 ± 1.4 g; body weight, mass ± error [3, 25]: 25.0 ± 1.4 g; body weight, mass ± error [3, 26]: 25.1 ± 1.3 g; body weight, mass ± error [3, 27]: 25.2 ± 1.2 g; body weight, mass ± error [3, 28]: 25.3 ± 1.2 g
2 | CC[C@H](C)[C@@H]([C@@H](CC(=O)N1CCC[C@H]1[C@H](OC)[C@@H](C)C(=O)N[C@H](C)[C@@H](O)c1ccccc1)OC)N(C)C(=O)[C@@H](NC(=O)[C@H](C(C)C)N(C)C(=O)OCc1ccc(NC(=O)[C@H](CCCNC(N)=O)NC(=O)[C@@H](NC(=O)CCCc2cn(CCCNC(=O)[C@H](Cc3ccc(O)cc3)NC(=O)[C@H](Cc3ccccc3)NC(=O)CCC(=O)NCCCCCC(=O)N(CCCC[C@H](NC(=O)N[C@@H](CCC(=O)O)C(=O)O)C(=O)O)Cc3cccc(Cl)c3)nn2)C(C)C)cc1)C(C)C [I, reference compound] ({GluureaLys(ε-3-ClBenzyl)-Ahx-Suc}-FY[X2]V[Cit][PABC][NMeV]V[Dil][Dolaproine]-X1) | 78.3±16.3 mm3 | 85.4±25.5 mm3 | 92.6±34.8 mm3 | 147.7 mm3 | 419.5 mm3 | 824.4 mm3 | 77.4% | 80.1% | 71.0% | 80.3±4.5 mm3 | 92.6±14.8 mm3 | 1059.1 mm3 | 1855.5 mm3 | 37.2% | 21.1% | ≤ 37.7% | 23.4 ± 0.8 g | 23.9 ± 1.2 g | 23.5 ± 1.7 g | 23.4 ± 1.5 g | tumor volume V±m [2, 6]: 128.9 mm3; body weight, mass ± error [3, 19]: 23.2 ± 1.4 g; body weight, mass ± error [3, 20]: 23.2 ± 1.6 g; body weight, mass ± error [3, 21]: 23.4 ± 1.5 g; body weight, mass ± error [3, 22]: 22.4 ± 2.1 g; body weight, mass ± error [3, 23]: 22.8 ± 1.8 g; body weight, mass ± error [3, 24]: 22.4 ± 1.6 g; body weight, mass ± error [3, 25]: 22.8 ± 1.4 g; body weight, mass ± error [3, 26]: 23.0 ± 1.3 g; body weight, mass ± error [3, 27]: 23.2 ± 1.4 g; body weight, mass ± error [3, 28]: 23.1 ± 1.3 g
